From patent US11459306B2, “Compounds, compositions, and methods for treating T-cell acute lymphoblastic leukemia” (The Trustees of Columbia University in the City of New York, priority 2017, dated 2022)

Key:
[1] = system: mouse PTEN null/NOTCH activated T-ALL cell line; test: Gene set enrichment analysis of murine T-ALL disease signature after drug treatment; format: cell-based; conditions: GSEA of T-ALL disease signature
Procedure: This was also accomplished by generating gene expression signatures to assess the effects of drug treatment. Global gene expression profiles were obtained in triplicate using a mouse PTEN null/NOTCH activated T-ALL cell line driven by over expression of the transcription factor LMO2. […] Tumor cells were cultured in the presence of CAL-130 (2.5 μM) or the gamma-secretase inhibitor (GSI) Compound E (1 μM). Compound E blocks the activity of NOTCH1, which is also believed to support T-ALL tumor formation, proliferation, and survival. Drug treated cells were harvested at time points known to affect the expression of the proto-oncogene cMyc (12 hours and 48 hours, respectively), a master regulator of cell growth, metabolism and survival. A Venn diagram was created to illustrate the overlap in genes altered by either PI3Kγ/δ blockade (red circle) or GSI (green circle) using a false discovery rate (FDR) of 0.0005 as cut off (FIG. 1A). Of note, ten-fold more genes were affected following PI3Kγ/δ blockade, including the majority (˜62%) of genes altered by GSI monotherapy, a highly significant finding (Fisher's exact test, P<2.2×10^−16).
A murine T-ALL disease signature was further defined by ranking all genes based on their differential expression in T-ALL samples compared to wild type murine thymocytes. […]

PIK3CA (PI3Kα) = biological target: T1, PIK3CA (PI3Kα) (Homo sapiens, UniProt P42336); test: KINOMEscan competition binding assay (DiscoverX); conditions: DiscoveRx gene symbol PIK3CA (PI3Kα)
T1 construct: purchased DiscoverX (KINOMEscan); host or cells: E. coli BL21-derived host (T7 phage) or HEK-293
T1 sequence (P42336 whole entry): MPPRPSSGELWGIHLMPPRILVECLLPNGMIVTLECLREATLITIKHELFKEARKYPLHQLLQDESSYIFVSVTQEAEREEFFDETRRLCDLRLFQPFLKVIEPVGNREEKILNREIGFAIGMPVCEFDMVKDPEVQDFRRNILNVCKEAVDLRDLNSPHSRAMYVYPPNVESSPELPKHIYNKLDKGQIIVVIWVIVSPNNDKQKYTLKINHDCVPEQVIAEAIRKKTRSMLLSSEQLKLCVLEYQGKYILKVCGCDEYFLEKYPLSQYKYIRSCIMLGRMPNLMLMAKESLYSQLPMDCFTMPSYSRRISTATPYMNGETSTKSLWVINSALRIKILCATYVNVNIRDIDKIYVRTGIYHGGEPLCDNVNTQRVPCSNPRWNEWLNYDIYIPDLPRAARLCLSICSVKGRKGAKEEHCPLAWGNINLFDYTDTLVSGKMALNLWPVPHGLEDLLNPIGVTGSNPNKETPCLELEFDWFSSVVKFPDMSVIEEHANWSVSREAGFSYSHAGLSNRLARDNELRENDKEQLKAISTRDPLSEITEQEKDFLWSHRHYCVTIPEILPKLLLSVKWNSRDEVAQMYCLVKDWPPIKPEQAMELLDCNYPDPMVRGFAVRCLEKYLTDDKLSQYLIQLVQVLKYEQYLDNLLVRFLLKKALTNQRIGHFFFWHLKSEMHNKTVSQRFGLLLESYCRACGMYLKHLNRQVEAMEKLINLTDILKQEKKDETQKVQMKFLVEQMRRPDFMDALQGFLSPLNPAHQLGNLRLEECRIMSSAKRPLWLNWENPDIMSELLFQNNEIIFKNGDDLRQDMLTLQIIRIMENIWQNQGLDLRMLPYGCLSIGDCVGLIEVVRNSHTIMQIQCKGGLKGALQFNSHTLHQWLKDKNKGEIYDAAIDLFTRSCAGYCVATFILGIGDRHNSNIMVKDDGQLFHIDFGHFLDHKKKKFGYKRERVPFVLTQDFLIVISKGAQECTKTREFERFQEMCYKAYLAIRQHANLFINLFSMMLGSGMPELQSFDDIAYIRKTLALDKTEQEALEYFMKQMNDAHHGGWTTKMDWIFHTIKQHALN
Procedure: (§1) The compounds were tested using KINOMEscan™ (DiscoverX), which is based on a competition binding assay that quantitatively measures the ability of a compound to compete with an immobilized, active-site directed ligand. The assay is performed by combining three components: DNA-tagged kinase; immobilized ligand; and a test compound. The ability of the test compound to compete with the immobilized ligand is measured via quantitative PCR of the DNA tag.
(§2) For most assays, kinase-tagged T7 phage strains were prepared in an E. coli host derived from the BL21 strain. E. coli were grown to log-phase and infected with T7 phage and incubated with shaking at 32° C. until lysis. The lysates were centrifuged and filtered to remove cell debris. The remaining kinases were produced in HEK-293 cells and subsequently tagged with DNA for qPCR detection. Streptavidin-coated magnetic beads were treated with biotinylated small molecule ligands for 30 minutes at room temperature to generate affinity resins for kinase assays. The liganded beads were blocked with excess biotin and washed with blocking buffer (SeaBlock (Pierce), 1% BSA, 0.05% Tween 20, 1 mM DTT) to remove unbound ligand and to reduce non-specific binding. Binding reactions were assembled by combining kinases, liganded affinity beads, and test compounds in 1× binding buffer (20% SeaBlock, 0.17×PBS, 0.05% Tween 20, 6 mM DTT). Test compounds were prepared as 111× stocks in 100% DMSO. Kds were determined using an 11-point 3-fold compound dilution series with three DMSO control points. All compounds for Kd measurements are distributed by acoustic transfer (non-contact dispensing) in 100% DMSO. The compounds were then diluted directly into the assays such that the final concentration of DMSO was 0.9%. All reactions performed in polypropylene 384-well plate. Each was a final volume of 0.02 ml. The assay plates were incubated at room temperature with shaking for 1 hour and the affinity beads were washed with wash buffer (1×PBS, 0.05% Tween 20). The beads were then re-suspended in elution buffer (1×PBS, 0.05% Tween 20, 0.5 μM non-biotinylated affinity ligand) and incubated at room temperature with shaking for 30 minutes. The kinase concentration in the eluates was measured by qPCR.
(§3) An 11-point 3-fold serial dilution of each test compound was prepared in 100% DMSO at 100× final test concentration and subsequently diluted to 1× in the assay (final DMSO concentration=1%). Most Kds were determined using a compound top concentration=30,000 nM. If the initial Kd determined was <0.5 nM (the lowest concentration tested), the measurement was repeated with a serial dilution starting at a lower top concentration.
(§4) Binding constants (Kds) were calculated with a standard dose-response curve using the Hill equation: […]
(§5) The Hill Slope was set to −1. Curves were fitted using a non-linear least square fit with the Levenberg-Marquardt algorithm.

PIK3CB (PI3Kβ) = biological target: T2, PIK3CB (PI3Kβ) (Homo sapiens, UniProt P42338); test: KINOMEscan competition binding assay (DiscoverX); conditions: DiscoveRx gene symbol PIK3CB (PI3Kβ)
T2 construct: purchased DiscoverX (KINOMEscan); host or cells: E. coli BL21-derived host (T7 phage) or HEK-293
T2 sequence (P42338 whole entry): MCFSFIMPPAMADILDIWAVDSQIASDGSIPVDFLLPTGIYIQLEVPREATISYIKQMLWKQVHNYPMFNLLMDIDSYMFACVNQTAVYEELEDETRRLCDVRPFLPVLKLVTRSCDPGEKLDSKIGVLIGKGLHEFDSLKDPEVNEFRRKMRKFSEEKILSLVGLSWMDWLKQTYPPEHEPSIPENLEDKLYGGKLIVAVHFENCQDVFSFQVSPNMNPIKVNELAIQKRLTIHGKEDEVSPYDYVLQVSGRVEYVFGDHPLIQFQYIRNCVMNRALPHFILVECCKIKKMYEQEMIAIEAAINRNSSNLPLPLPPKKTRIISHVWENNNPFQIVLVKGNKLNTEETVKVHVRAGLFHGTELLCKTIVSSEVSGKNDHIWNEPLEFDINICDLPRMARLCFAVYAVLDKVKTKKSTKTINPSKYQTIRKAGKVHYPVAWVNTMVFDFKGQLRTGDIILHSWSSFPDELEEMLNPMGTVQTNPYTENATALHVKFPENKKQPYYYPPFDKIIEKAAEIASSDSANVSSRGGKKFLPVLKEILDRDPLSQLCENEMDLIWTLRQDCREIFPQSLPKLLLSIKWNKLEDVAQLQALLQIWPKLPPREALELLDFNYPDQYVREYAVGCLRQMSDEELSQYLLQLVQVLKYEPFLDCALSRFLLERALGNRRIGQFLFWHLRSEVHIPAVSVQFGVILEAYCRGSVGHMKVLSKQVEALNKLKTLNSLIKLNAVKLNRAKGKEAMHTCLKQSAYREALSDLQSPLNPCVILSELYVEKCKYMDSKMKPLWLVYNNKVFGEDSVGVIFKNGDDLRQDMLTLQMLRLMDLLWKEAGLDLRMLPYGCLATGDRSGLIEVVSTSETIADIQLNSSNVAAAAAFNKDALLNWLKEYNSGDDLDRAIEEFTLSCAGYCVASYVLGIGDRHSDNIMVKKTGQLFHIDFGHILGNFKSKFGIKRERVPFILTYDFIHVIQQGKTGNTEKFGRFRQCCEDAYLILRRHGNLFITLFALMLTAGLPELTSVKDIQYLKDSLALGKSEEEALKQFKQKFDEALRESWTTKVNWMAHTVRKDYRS
Procedure: as §1, §2, §3, §4, §5

PIK3CD = biological target: T3, PIK3CD (Homo sapiens, UniProt O00329); test: KINOMEscan competition binding assay (DiscoverX); conditions: DiscoveRx gene symbol PIK3CD (b251 prints: PI3Kγ)
T3 construct: purchased DiscoverX (KINOMEscan); host or cells: E. coli BL21-derived host (T7 phage) or HEK-293
T3 sequence (O00329 1-1044): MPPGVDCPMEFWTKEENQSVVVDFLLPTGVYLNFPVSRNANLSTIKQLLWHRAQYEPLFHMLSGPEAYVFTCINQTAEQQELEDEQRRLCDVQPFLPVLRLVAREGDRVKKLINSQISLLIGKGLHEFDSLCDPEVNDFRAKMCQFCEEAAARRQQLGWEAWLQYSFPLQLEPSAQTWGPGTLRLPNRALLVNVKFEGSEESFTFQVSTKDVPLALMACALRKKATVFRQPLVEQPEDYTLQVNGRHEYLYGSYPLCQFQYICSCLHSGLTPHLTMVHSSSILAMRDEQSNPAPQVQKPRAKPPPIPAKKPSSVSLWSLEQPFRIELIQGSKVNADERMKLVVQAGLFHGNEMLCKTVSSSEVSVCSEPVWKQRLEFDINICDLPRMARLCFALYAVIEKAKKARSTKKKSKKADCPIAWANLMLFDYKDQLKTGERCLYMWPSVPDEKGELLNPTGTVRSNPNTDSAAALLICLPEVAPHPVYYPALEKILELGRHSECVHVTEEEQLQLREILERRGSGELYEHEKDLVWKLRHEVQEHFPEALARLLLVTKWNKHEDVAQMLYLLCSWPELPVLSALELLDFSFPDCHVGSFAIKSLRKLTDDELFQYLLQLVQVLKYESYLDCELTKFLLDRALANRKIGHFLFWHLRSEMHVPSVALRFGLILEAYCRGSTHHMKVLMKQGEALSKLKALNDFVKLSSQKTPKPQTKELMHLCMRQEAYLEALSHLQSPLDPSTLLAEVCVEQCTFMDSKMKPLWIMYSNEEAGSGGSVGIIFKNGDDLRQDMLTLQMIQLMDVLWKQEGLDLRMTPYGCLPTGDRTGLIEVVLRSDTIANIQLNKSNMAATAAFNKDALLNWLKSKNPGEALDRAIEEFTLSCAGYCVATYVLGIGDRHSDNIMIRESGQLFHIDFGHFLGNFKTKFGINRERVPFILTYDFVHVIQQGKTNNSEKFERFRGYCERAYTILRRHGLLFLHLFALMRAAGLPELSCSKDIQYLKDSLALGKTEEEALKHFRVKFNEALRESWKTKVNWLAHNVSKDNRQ
Procedure: as §1, §2, §3, §4, §5

PIK3CG = biological target: T4, PIK3CG (Homo sapiens, UniProt P48736); test: KINOMEscan competition binding assay (DiscoverX); conditions: DiscoveRx gene symbol PIK3CG (b251 prints: PI3Kδ)
T4 construct: purchased DiscoverX (KINOMEscan); host or cells: E. coli BL21-derived host (T7 phage) or HEK-293
T4 sequence (P48736 whole entry): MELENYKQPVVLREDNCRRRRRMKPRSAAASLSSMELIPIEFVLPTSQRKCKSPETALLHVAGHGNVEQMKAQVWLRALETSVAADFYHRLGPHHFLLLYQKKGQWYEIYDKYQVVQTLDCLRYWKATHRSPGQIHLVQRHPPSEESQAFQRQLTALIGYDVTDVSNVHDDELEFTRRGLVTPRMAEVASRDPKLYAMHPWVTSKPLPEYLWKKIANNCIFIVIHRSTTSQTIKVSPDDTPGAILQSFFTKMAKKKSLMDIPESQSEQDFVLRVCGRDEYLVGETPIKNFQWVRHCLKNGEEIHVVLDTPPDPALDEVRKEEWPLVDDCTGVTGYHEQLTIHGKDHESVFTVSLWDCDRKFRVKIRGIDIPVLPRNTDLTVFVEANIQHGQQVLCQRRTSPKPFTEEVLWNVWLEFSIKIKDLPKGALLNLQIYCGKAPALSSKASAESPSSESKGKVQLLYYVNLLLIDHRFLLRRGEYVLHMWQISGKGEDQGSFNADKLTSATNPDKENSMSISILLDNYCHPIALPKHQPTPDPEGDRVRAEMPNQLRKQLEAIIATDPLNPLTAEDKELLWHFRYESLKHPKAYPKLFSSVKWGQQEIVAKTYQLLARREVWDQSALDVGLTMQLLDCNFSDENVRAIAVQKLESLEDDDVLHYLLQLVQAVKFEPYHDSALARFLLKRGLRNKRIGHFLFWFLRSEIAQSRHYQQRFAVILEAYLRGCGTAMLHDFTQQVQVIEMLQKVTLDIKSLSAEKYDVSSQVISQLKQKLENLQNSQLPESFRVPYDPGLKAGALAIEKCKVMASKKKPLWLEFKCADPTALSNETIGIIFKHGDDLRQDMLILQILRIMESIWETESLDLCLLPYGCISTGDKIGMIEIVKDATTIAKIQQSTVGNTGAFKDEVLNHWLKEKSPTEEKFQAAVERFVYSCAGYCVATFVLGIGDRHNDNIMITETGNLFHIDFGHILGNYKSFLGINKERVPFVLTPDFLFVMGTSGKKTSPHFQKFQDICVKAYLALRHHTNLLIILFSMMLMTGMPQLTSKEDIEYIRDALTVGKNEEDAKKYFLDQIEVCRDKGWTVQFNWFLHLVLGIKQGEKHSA
Procedure: as §1, §2, §3, §4, §5

T-ALL cell line = test: T-ALL cell viability / cell death; format: cell-based, murine
Procedure: Compounds DWL-PI3K-1, DWL-PI3K-2, DWL-PI3K-3, DWL-PI3K-4, DWL-PI3K-5, DWL-PI3K-6 and DWL-PI3K-7, and reference compounds CAL-130, tenalisib, duvelisib were evaluated for efficacy (cell viability by measuring ATP (CellTiter-Glo) or propidium iodide (PI) uptake) against a number of cancer cells, including LMO-2-007, OCI-LY-10, HH, H9, PF382 and CCRF-CEM.

[2] = system: murine PTEN null T-ALL cell line lacking both p110γ and p110δ catalytic domains; test: Killing of T-ALL cell line lacking p110γ and p110δ; format: cell-based; conditions: selectivity control line
From the text: Compounds described herein also appear to be selective for p110 catalytic domains of PI3Kγ and PI3Kδ as treatment, for example, of a T-ALL cell line lacking these two p110 isoforms results in limited cell killing.

[3] = Pharmacokinetics relative to CAL-130; format: in vivo
T-ALL = test: Tumor burden and survival of mice with T-ALL; format: in vivo
[4] = system: human primary T-ALL cells; test: Akt phosphorylation and pro-apoptotic pathways in human primary T-ALL cells; format: cell-based

| SMILES | normalized enrichment score (NES) ([1]; 1 μM, 48 hours) | Kd (PIK3CA (PI3Kα)) [nM] | Kd (PIK3CB (PI3Kβ)) [nM] | Kd (PIK3CD) [nM] | Kd (PIK3CG) [nM] | amount needed relative to CAL-130 to achieve a similar reduction in tumor cell survival (T-ALL cell line) | cell killing of T-ALL cell line lacking p110γ and p110δ [2] | pharmacokinetics [3] | efficacy in inducing T-ALL cell death relative to CAL-130 (T-ALL cell line; cultured T-ALL cells) | effect on tumor burden and survival (T-ALL) | mean survival (T-ALL; 10 mg/kg tid) [days] | normalized enrichment score (NES) ([1]; 2.5 μM, 12 hours) | Akt phosphorylation and pro-apoptotic pathways [4] | mean survival (T-ALL; 30 mg/kg tid) [days] |
| --- | --- | --- | --- | --- | --- | --- | --- | --- | --- | --- | --- | --- | --- | --- |
| C[C@H](NC(=O)Cc1cc(F)cc(F)c1)C(=O)N[C@H]1N=C(c2ccccc2)c2ccccc2N(C)C1=O [Compound E] | −2.6 | – | – | – | – | – | – | – | – | – | – | – | – | – |
| [2H]c1c([2H])c([2H])c(-n2c([C@H](C)Nc3nc(N)nc(N)c3C#N)cc3cccc(Cl)c3c2=O)c([2H])c1[2H] [DWL-PI3K-7, (S)-2,4-diamino-6-((1-(8-chloro-1-oxo-2-(phenyl-d5)-1,2-dihydroisoquinolin-3-yl)ethyl)amino)pyrimidine-5-carbonitrile] | – | 6.1 | 0.3 | 0.12 | 0.17 | about 10 fold less | limited killing effect | better pharmacokinetics | – | – | – | – | – | – |
| Cc1nc(N)nc(N[C@@H](C)c2cc3cccc(Cl)c3c(=O)n2-c2ccccc2)c1C#N [DWL-PI3K-4, (S)-2-amino-4-((1-(8-chloro-1-oxo-2-phenyl-1,2-dihydroisoquinolin-3-yl)ethyl)amino)-6-methylpyrimidine-5-carbonitrile] | – | 2.2 | 0.15 | 0.042 | 0.089 | about 10 fold less | limited killing | better pharmacokinetics | greater efficacy than CAL-130 | – | – | – | – | – |
| Cc1ccccc1-n1c([C@H](C)Nc2nc(N)nc3[nH]cnc23)nc2cccc(C)c2c1=O [CAL-130] | – | – | – | – | – | – | – | – | – | significantly reduced tumor burden and prolonged survival of diseased mice | 45 | −5.8 | abolished Akt phosphorylation and activated pro-apoptotic pathways | – |
| C[C@H](Nc1nc(N)nc(N)c1C#N)c1cc2cccc(Cl)c2c(=O)n1-c1cc(F)cc(F)c1 [DWL-PI3K-5, (S)-2,4-diamino-6-(1-(8-chloro-2-(3,5-difluorophenyl)-1-oxo-1,2-dihydroisoquinolin-3-yl)ethylamino)pyrimidine-5-carbonitrile] | – | 30 | 1.4 | 0.12 | 0.38 | about 10 fold less | – | better pharmacokinetics | – | – | – | – | – | – |
| Cc1ccccc1-n1c([C@H](C)Nc2nc(N)nc(C)c2C#N)nc2cccc(C)c2c1=O [DWL-PI3K-2, (S)-2-amino-4-methyl-6-((1-(5-methyl-4-oxo-3-(o-tolyl)-3,4-dihydroquinazolin-2-yl)ethyl)amino)pyrimidine-5-carbonitrile] | – | 53 | 4.3 | 0.62 | 0.62 | about 10 fold less | – | better pharmacokinetics | – | – | – | – | – | – |
| Cc1ccccc1-n1c([C@H](C)Nc2nc(N)nc(N)c2C#N)nc2cccc(C)c2c1=O [DWL-PI3K-1, (S)-2,4-diamino-6-((1-(5-methyl-4-oxo-3-(o-tolyl)-3,4-dihydroquinazolin-2-yl)ethyl)amino)pyrimidine-5-carbonitrile] | – | 20 | 0.92 | 0.39 | 0.2 | about 10 fold less | – | better pharmacokinetics | – | – | – | – | – | – |
| C[C@H](Nc1nc(N)nc(N)c1C#N)c1cc2cccc(Cl)c2c(=O)n1-c1cccc(F)c1 [DWL-PI3K-6, (S)-2,4-diamino-6-((1-(8-chloro-2-(3-fluorophenyl)-1-oxo-1,2-dihydroisoquinolin-3-yl)ethyl)amino)pyrimidine-5-carbonitrile] | – | 10 | 0.46 | 0.11 | 0.27 | about 10 fold less | – | better pharmacokinetics | – | – | – | – | – | – |
| C[C@H](Nc1ncnc2nc[nH]c12)c1cc2cccc(Cl)c2c(=O)n1-c1ccccc1 [IPI-145] | – | – | – | – | – | – | – | – | – | not as effective in reducing tumor burden or in prolonging overall survival | – | – | – | 18 |
